# Assays:
# Type in all cases: cell-based, mouse
# [1] = test system: K1735 M4 murine melanoma cell line; test: Cell adhesion and spreading assay on peptide- or protein-coated Immulon 1 plates
# M4 melanoma cells [2] = settings: even at the highest concentrations tested (Fig. 7, up to 500 μg/ml)
# M4 melanoma cells [3] = settings: filters coated with type IV collagen; soluble control peptide (Fig. 3c)
Substance,"melanoma cell spreading compared with peptide IV-H1 ([1]; all peptide concentrations (5-500 μg/ml), all time points (20-90 min) (Fig. 6))","melanoma cell adhesion on alanyl-substituted peptide compared with peptide IV-H1 ([1]; coated surfaces, up to 500 μg/ml (Fig. 5))",cell motility through coated filters (M4 melanoma cells [2]),"promotion of melanoma cell adhesion or spreading ([1]; control peptide, coated surface)",effect on type IV collagen-mediated cell motility (M4 melanoma cells [3])
GVKGDKGNAGWAGAA(Y) [peptide IV-H1A],decreased ability to spread,nearly the same extent,not observed,,
GVPGKDGQAGQPGQP(Y) [peptide 17],,,,does not promote,no effect

# — article PMC2116148 (The Journal of Cell Biology, 1990)
